Experimental findings from patent US10160747B2, “Compounds and methods for kinase modulation, and indications therefor” (Plexxikon Inc., priority 2016, dated 2018) are described below.

Assay [1] has as its system MOLM-14 F691L (endogenous FLT3 ITD and transfected FLT3 F691L). The experiment in a line: MOLM-14 F691L cell proliferation assay (CellTiter-Glo). The class given is cell-based. The settings on record: Homo sapiens, MOLM-14, 72 h; 3 d growth, GMean. In a few lines: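 MOLM-14 derivatives carrying D835Y or F691L, selected under escalating AC220, were seeded at 1×10^4 cells/well and exposed to an 8-point 1:3 compound series (1 to 0.00046 μM, 0.2% DMSO final) for three days at 37° C., 5% CO2. CellTiter-Glo luminescence (ATP content) versus concentration gave IC50.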
(Cellular ATP, detected with luciferase, serves as a proxy for viable cell number.)

Assay [2] concerns the target T1, BA/F3-FLT3-ITD + D835Y (Homo sapiens, UniProt P36888, D835Y, cells depend on it, form not given).
T1 sequence (P36888 with tags, fused parts or gaps INS600HVDFREYEYD/D835Y): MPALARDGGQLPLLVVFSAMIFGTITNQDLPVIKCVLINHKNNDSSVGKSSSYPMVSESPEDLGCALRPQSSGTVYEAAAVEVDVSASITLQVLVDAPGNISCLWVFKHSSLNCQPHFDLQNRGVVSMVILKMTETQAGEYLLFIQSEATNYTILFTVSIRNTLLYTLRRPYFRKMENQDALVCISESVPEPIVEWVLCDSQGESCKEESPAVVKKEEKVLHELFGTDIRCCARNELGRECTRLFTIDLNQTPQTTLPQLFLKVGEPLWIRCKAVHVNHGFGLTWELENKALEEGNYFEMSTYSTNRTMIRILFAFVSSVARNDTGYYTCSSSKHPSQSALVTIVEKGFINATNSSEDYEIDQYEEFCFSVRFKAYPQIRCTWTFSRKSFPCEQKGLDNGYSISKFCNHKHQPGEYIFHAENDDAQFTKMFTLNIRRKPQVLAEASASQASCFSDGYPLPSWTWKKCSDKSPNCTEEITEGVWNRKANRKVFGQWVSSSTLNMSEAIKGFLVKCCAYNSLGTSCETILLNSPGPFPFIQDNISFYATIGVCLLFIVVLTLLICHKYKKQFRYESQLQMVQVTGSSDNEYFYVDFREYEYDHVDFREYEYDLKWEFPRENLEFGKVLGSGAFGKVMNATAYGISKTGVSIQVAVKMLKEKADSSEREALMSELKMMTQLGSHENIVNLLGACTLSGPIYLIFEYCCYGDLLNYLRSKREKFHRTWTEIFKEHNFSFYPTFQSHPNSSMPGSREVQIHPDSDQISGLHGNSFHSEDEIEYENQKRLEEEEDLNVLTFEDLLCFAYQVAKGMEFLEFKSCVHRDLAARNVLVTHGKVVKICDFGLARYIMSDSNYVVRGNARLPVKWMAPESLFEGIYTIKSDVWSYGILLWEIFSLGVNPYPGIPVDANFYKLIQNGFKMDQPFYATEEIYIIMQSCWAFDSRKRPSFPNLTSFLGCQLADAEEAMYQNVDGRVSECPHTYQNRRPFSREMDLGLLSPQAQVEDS
As to the kind of experiment: Engineered BA/F3 cell growth assay, FLT3 ITD/D835Y. The class given is cell-based, murine. To be noted: 3 d growth. The gist of the method: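 IC50 derived from CellTiter-Glo ATP luminescence after 3 days at 37 °C, 5% CO2, over eight 1:3 dilutions from 1 μM (0.2% DMSO final). Cells: IL-3-independent murine Ba/F3 expressing full-length FLT3 ITD/D835Y, 1×10^4 per well.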

Molecules are shown by their SMILES.

For orientation: IC50 means the point on the concentration scale where inhibition reaches its midpoint. What is called GI50 is the concentration giving 50% growth inhibition. For the compound `CCn1cc(Nc2ncc(-c3ccc(CC(=O)Nc4cnc(Cl)c(C(F)(F)F)c4)cc3)cn2)cn1` [Compound P-0165, N-[6-chloro-5-(trifluoromethyl)-3-pyridyl]-2-[4-[2-[(1-ethylpyrazol-4-yl)amino]pyrimidin-5-yl]phenyl]acetamide], in assay [1], the half-maximal inhibitory concentration (IC50) fell in the range of 0.0001 to 10 µM. Moreover, the 50% growth inhibitory concentration (GI50) in assay [2] fell in the range of 0.0001 to 10 µM.

The compound `CCn1cc(Nc2ncc(-c3ccc(CC(=O)Nc4cncc(C(F)(F)F)c4)cc3)cn2)cn1` [Compound P-0166, 2-[4-[2-[(1-ethylpyrazol-4-yl)amino]pyrimidin-5-yl]phenyl]-N-[5-(trifluoromethyl)-3-pyridyl]acetamide] came in with an IC50 in assay [1] of 0.0001 to 10 µM. Further, the GI50 in assay [2] lay in the range of 0.0001 to 10 µM.

`Cn1cnc(Nc2ncc(-c3ccc(CC(=O)Nc4cncc(C(F)(F)F)c4)cc3)cn2)c1` [Compound P-0167] came in with a 50% inhibitory concentration (IC50) in assay [1] of 0.0001 to 10 µM. Moreover, in assay [2], the GI50 is 0.0001 to 10 µM.

`Cn1cnc(Nc2ncc(-c3ccc(CC(=O)Nc4cnc(F)c(C(C)(F)F)c4)cc3)cn2)c1` [Compound P-0168, N-[5-(1,1-difluoroethyl)-6-fluoro-3-pyridyl]-2-[4-[2-[(1-methylimidazol-4-yl)amino]pyrimidin-5-yl]phenyl]acetamide] came in with a half-inhibitory concentration (IC50) in assay [1] of 0.0001 to 10 µM. In assay [2], the 50% growth inhibitory concentration (GI50) lay in the range of 0.0001 to 10 µM.

`Cn1cnc(Nc2ncc(-c3ccc(CC(=O)Nc4cc(C(C)(F)F)ccn4)cc3)cn2)c1` [Compound P-0169, N-[4-(1,1-difluoroethyl)-2-pyridyl]-2-[4-[2-[(1-methylimidazol-4-yl)amino]pyrimidin-5-yl]phenyl]acetamide]: the 50% inhibitory concentration (IC50) in assay [1] lay within 0.0001 to 10 µM. The GI50 in assay [2] was in the range of 0.0001 to 10 µM.

`COCCn1cc(Nc2ncc(-c3ccc(CC(=O)Nc4cncc(C(F)(F)F)c4)cc3)cn2)cn1` [Compound P-0178, 2-[4-[2-[[1-(2-methoxyethyl)pyrazol-4-yl]amino]pyrimidin-5-yl]phenyl]-N-[5-(trifluoromethyl)-3-pyridyl]acetamide] showed an IC50 in assay [1] of 0.0001 to 10 µM. For the same compound, in assay [2], the concentration for 50% growth inhibition (GI50) was 0.0001 to 10 µM.

In the case of `COCCn1cc(Nc2ncc(-c3ccc(CC(=O)Nc4cnc(C)c(C(F)(F)F)c4)cc3)cn2)cn1` [Compound P-0179, 2-[4-[2-[[1-(2-methoxyethyl)pyrazol-4-yl]amino]pyrimidin-5-yl]phenyl]-N-[6-methyl-5-(trifluoromethyl)-3-pyridyl]acetamide], the IC50 in assay [1] lay in the range of 0.0001 to 10 µM. Moreover, the GI50 in assay [2] was 0.0001 to 10 µM.

The compound `COc1nn(C[C@H](C)O)cc1Nc1ncc(-c2ccc(CC(=O)Nc3cnc(C)c(C(F)(F)F)c3)cc2)cn1` [Compound P-0180, 2-[4-[2-[[1-[(2S)-2-hydroxypropyl]-3-methoxy-pyrazol-4-yl]amino]pyrimidin-5-yl]phenyl]-N-[6-methyl-5-(trifluoromethyl)-3-pyridyl]acetamide] came in with an IC50 in assay [1] of 0.0001 to 10 µM. Further, the 50% growth inhibitory concentration (GI50) in assay [2] was 0.0001 to 10 µM.

In assay [1], `O=C(Cc1ccc(-c2cnc3[nH]c(-c4ccnc(N5CCOCC5)c4)cc3c2)cn1)Nc1ccnc(C(F)(F)F)c1` [Compound P-0181, 2-[5-[2-(2-morpholino-4-pyridyl)-1H-pyrrolo[2,3-b]pyridin-5-yl]-2-pyridyl]-N-[2-(trifluoromethyl)-4-pyridyl]acetamide] had an IC50 of 0.0001 to 10 µM. Further, in assay [2], the GI50 was 0.0001 to 10 µM.

On to `N#Cc1cc(-c2cc3cc(-c4ccc(CC(=O)Nc5ccnc(C(F)(F)F)c5)nc4)cnc3[nH]2)ccn1` [Compound P-0182, 2-[5-[2-(2-cyano-4-pyridyl)-1H-pyrrolo[2,3-b]pyridin-5-yl]-2-pyridyl]-N-[2-(trifluoromethyl)-4-pyridyl]acetamide], for which the IC50 in assay [1] fell in the range of 0.0001 to 10 µM. In addition, in assay [2], the GI50 lay in the range of 0.0001 to 10 µM.

The compound `O=C(Cc1ccc(-c2cnc3[nH]c(-c4ccc(N5CCOCC5)nc4)cc3c2)cn1)Nc1ccnc(C(F)(F)F)c1` [Compound P-0183, 2-[5-[2-(6-morpholino-3-pyridyl)-1H-pyrrolo[2,3-b]pyridin-5-yl]-2-pyridyl]-N-[2-(trifluoromethyl)-4-pyridyl]acetamide] gave a 50% inhibitory concentration (IC50) in assay [1] of 0.0001 to 10 µM. Further, in assay [2], the concentration for 50% growth inhibition (GI50) is 0.0001 to 10 µM.

For `O=C(Cc1ccc(-c2cnc3[nH]c(-c4ccc(N5CCOCC5)nc4)cc3c2)c(F)c1)Nc1cc(C(F)(F)F)ccn1` [Compound P-0192, 2-[3-fluoro-4-[2-(6-morpholino-3-pyridyl)-1H-pyrrolo[2,3-b]pyridin-5-yl]phenyl]-N-[4-(trifluoromethyl)-2-pyridyl]acetamide], the concentration for half-maximal inhibition (IC50) in assay [1] lay within 0.0001 to 10 µM. Further, in assay [2], the 50% growth inhibitory concentration (GI50) was in the range of 0.0001 to 10 µM.

Regarding `COc1ccc(-c2cc3cc(-c4ccc(CC(=O)Nc5cncc(C(F)(F)F)c5)cc4F)cnc3[nH]2)cn1` [Compound P-0196, 2-[3-fluoro-4-[2-(6-methoxy-3-pyridyl)-1H-pyrrolo[2,3-b]pyridin-5-yl]phenyl]-N-[5-(trifluoromethyl)-3-pyridyl]acetamide], the IC50 in assay [1] was 0.0001 to 10 µM. For the same compound, in assay [2], the GI50 fell in the range of 0.0001 to 10 µM.

Turning to `O=C(Cc1ccc(-c2cnc3[nH]c(-c4cnn(C(F)F)c4)cc3c2)c(F)c1)Nc1cncc(C(F)(F)F)c1` [Compound P-0197, 2-[4-[2-[1-(difluoromethyl)pyrazol-4-yl]-1H-pyrrolo[2,3-b]pyridin-5-yl]-3-fluoro-phenyl]-N-[5-(trifluoromethyl)-3-pyridyl]acetamide], the concentration for half-maximal inhibition (IC50) in assay [1] was in the range of 0.0001 to 10 µM. In assay [2], the GI50 fell in the range of 0.0001 to 10 µM.

As to `O=C(Cc1ccc(-c2cnc3[nH]c(-c4ccc(N5CCOCC5)nc4)cc3c2)c(F)c1)Nc1cncc(C(F)(F)F)c1` [Compound P-0198, 2-[3-fluoro-4-[2-(6-morpholino-3-pyridyl)-1H-pyrrolo[2,3-b]pyridin-5-yl]phenyl]-N-[5-(trifluoromethyl)-3-pyridyl]acetamide], in assay [1], the IC50 lay within 0.0001 to 10 µM. For the same compound, the GI50 in assay [2] fell in the range of 0.0001 to 10 µM.

Take `N#Cc1cc(-c2cc3cc(-c4ccc(CC(=O)Nc5cncc(C(F)(F)F)c5)cc4F)cnc3[nH]2)ccn1` [Compound P-0199, 2-[4-[2-(2-cyano-4-pyridyl)-1H-pyrrolo[2,3-b]pyridin-5-yl]-3-fluoro-phenyl]-N-[5-(trifluoromethyl)-3-pyridyl]acetamide]: the IC50 in assay [1] was 0.0001 to 10 µM. Further, in assay [2], the GI50 is 0.0001 to 10 µM.
